Results taken from patent publication US20140171475A1, “ANIMAL ECTOPARASITE-CONTROLLING AGENT” (SUMITOMO CHEMICAL COMPANY, LIMITED, priority 2011, published 2014).
Like-named read-outs stand apart in the source and are kept apart here.

Tests used:
Format in all cases: in vivo
[1] = system: Haemaphysalis longicornis (young ticks) on mouse; experiment: Dropping application against mouse-infested ticks; conditions: topical, 48 h, 0.1% w/v solution, 200 μL dropwise to whole body surface of mouse, 2 days after application, read-out: Mortality
Description: The previous day of a dropping application, 30 test ticks (Haemaphysalis longicornis, young ticks) were deposited on a mouse. Before the dropping application, uninfested ticks were removed.
Any one of the present benzylamide compounds (12), (13), (15), (28), (29), (30), (31), (32), (33), (34), (36), (37) and (38) (5 mg) was dissolved in a mixture (5 mL) of propylene carbonate and diethylene glycol monoethyl ether in equal volume to prepare a 0.1% w/v solution. Said solution (200 μL) was applied dropwise to the whole body surface of a mouse with a pipette. To a control group, the mixture (200 μL) alone was applied. Said application was repeated 3 times per group.
Two (2) days after the application, the number of dead ticks was examined and the mortality was calculated by the following formula:
Mortality (%)=100×(number of dead ticks/infested ticks before dropping application)

[2] = system: Haemaphysalis longicornis (non-blood-fed young ticks); experiment: Pesticidal activity on ticks, dry film contact application test; conditions: 48 h
Description: Any one of the present benzylamide compounds (12), (13), (15), (28), (29), (30), (31), (32), (33), (34), (37) and (38) (16 μg) was dissolved in acetone (0.2 mL), and into a screw bottle (20 mL volume) this solution was dropwised and capped the bottle. Then the capped-bottle was made rolling so that the inner-surface of the screw bottle was uniformly coated with the solution. The acrew bottle was capped off and allowed to dry up for 2 hours. Into the screw bottle, test ticks (Haemaphysalis longicornis, non-blood-fed young ticks, 10 ticks/group) were added, and capped the bottle. Two (2) days later, the number of dead ticks was examined and the mortality was calculated by the following formula:
Mortality (%)=100×(number of dead ticks/number of ticks tested)

[3] = system: Haemaphysalis longicornis (young ticks) on mouse; experiment: Oral administration against mouse-infested ticks; conditions: test solution 20 mg/10 mL at 10 mL per 1 kg mouse body weight, 2 days after administration
Description: The previous day of an oral administration, 30 test ticks (Haemaphysalis longicornis, young ticks) were deposited on a mouse. Before the oral administration, uninfested ticks were removed.
(§1) The present benzylamide compound (13) (20 mg) was dissolved in dimethylformamide (680 mg), and thereto a corn oil was added to prepare a test solution (10 mL). Said test solution was orally administered to the mouse at the rate of 10 mL per 1 kg of the body weight of the mouse with a gastric sonde. To a control group, a 7% dimethylformamide/corn oil solution alone was orally administered. Each administration was repeated 3 times per group.
Two (2) days after the administration, the number of dead ticks was examined and the mortality was calculated by the following formula:
Mortality (%)=100×(number of dead ticks/infested ticks before oral administration)

[4] = system: Ctenocephalides felies fleas on mouse; experiment: Oral administration against mouse-infested fleas; conditions: test solution 20 mg/10 mL at 10 mL per 1 kg mouse body weight, 2 days after flea deposition
Description: as §1, with “group. After the administration, 20 test fleas (Ctenocephalides felies) were deposited on a mouse.” for “group.”
Two (2) days after the deposition, the number of dead fleas was examined and the mortality was calculated by the following formula:
Mortality (%)=100×(number of dead fleas/number of fleas tested)

[5] = system: Haemaphysalis longicornis (young ticks) on dog (beagle); experiment: Dropping application against dog-infested ticks; conditions: dropping application 20 mg/kg
Description: The previous day of a dropping application, 100 test ticks (Haemaphysalis longicornis, young ticks) were deposited on a dog (beagle). Before the dropping application, infested ticks were counted.
(§2) The present hydrazide compound (13) (1.5 g) was dissolved in diethylene glycol monoethyl ether (6.0 g) to prepare a test solution. Said test solution was directly dropped on the skin of the neck and back of the dog while pushing aside fur thereon at a rate of 0.1 ml per 1 kg of the dog's body weight (dose amount: 20 mg/kg). This is referred to as a test group. On the other hand, diethylene glycol monoethyl ether alone was applied dropwise to a placebo group.
Two (2) days after the application, the number of living ticks, which were infesting the dogs, was examined. When the examination was completed, all infested ticks were removed from the dogs.
(§3) Both of Forty (14) days and 28 days after the application, 100 test ticks (Haemaphysalis longicornis, young ticks) were repeatedly deposited on a dog (beagle) respectively. Two (2) days after the repeated deposition, the number of living ticks, which were infesting the dogs, was examined respectively. When each of the examination was completed, all infested ticks were removed from the dogs.
(§4) The infestation rate and control rate were calculated by the following formulae: […]
(§5) Method of calculating infestation rate and control rate at the initial stage (2 days) after the application:
(§6) Infestation rate (%) at X days after application=(number of living ticks at X days/number of living ticks before application)×100
(§7) Control rate (%) at X days after application {(infestation rate of test group before application infestation rate of test group at X days)/infestation rate of test group before application}×100
(§8) Method of calculating infestation rate and control rate at both 16 days and 30 days after the application:
Infestation rate (%) at X days after application=(number of living ticks at X days/number of living ticks repeatedly deposited)×100 […]

[6] = system: Haemaphysalis longicornis (young ticks) on dog (beagle); experiment: Oral administration against dog-infested ticks; conditions: oral gelatin capsule 40 mg/kg
Description: The previous day of an oral administration, 100 test ticks (Haemaphysalis longicornis, young ticks) were deposited on a dog (beagle). Before the oral administration, infested ticks were counted.
A gelatin capsule in which the present benzylamide compound (13) was filled into a gelatin capsule so that the amount of the present benzylamide compound […] administered was 40 mg per 1 kg of the dog's body weight was orally administered to the dog conpulsively. This is referred to as a test group. On the other hand, a geratin capsule alone was orally administered to a placebo group.
Two (2) days after the oral administration, the number of living ticks, which were infesting the dogs, was examined. When the examination was completed, all infested ticks were removed from the dogs.
as §4, §5, §6
Control rate (%) at X days after application {(infestation rate of test group before application−infestation rate of test group at X days)/infestation rate of test group before application}×100 […]

[7] = system: Ctenocephalides felis fleas on cat; experiment: Dropping application against cat-infested fleas
Description: The previous day of a dropping application, 50 test fleas (Ctenocephalides felis, adult ticks) were deposited on a cat. Before the dropping application, infested flaes were counted.
as §2, with “Each of the” for “The”, “benzylamide” for “hydrazide”, “(specified weight: 0.375 g, 0.75 g and 1.5” for “(1.5”, “cat” for “dog”, “cat's” for “dog's”, “amount: 5 mg/kg, 10 mg/kg and” for “amount:”
Two (2) days after the application, the number of living fleas, which were infesting the cats, was examined. When the examination was completed, all infested fleas were removed from the cats.
as §3, with “14” for “Forty (14)”, “50” for “100”, “fleas (Ctenocephalides felis, adult” for “ticks (Haemaphysalis longicornis, young”, “cat” for “dog (beagle)”
as §4, §5
Infestation rate (%) at X days after application=(number of living fleas at X days/number of living fleas before application)×100
as §7, §8
Infestation rate (%) at X days after application=(number of living fleas at X days/number of living fleas repeatedly deposited)×100
Control rate (%) at X days after application {(infestation rate of placebo group at X days−infestation rate of test group at X days)/infestation rate of placebo group after X days}×100
In addition, if an infestation rate of a test group is higher than a placebo group, then the control rate is deemed to be 0%.

[8] = 16 μg as dry film on inner surface of 20 mL screw bottle, 2 days later, read-out: Mortality

Row | Structure (SMILES) | pest or weed control at 0.1 % strength [1] [%] | mortality at 16 µg/bottle [2, 8] [%] | other results
1 | O=C(NCc1cc(C2=NOC(c3cc(Cl)cc(Cl)c3)(C(F)(F)F)C2)ccc1Cl)C1CCCC1 (stereo not drawn) [(38), N-{2-chloro-[5-(3,5-dichlorophenyl)-5-trifluoromethyl-4,5-dihydroisoxazol-3-yl]benzyl}cyclopentanecarboxamide] | ≥ 60 | ≥ 90 | 
2 | CCCC(=O)NCc1cc(C2=NOC(c3cc(Cl)cc(Cl)c3)(C(F)(F)F)C2)ccc1Cl (stereo not drawn) [(32)] | ≥ 60 | ≥ 90 | 
3 | CC(C)C(=O)NCc1cc(C2=NOC(c3cc(Cl)cc(Cl)c3)(C(F)(F)F)C2)ccc1Cl (stereo not drawn) [(31), N-{2-chloro-[5-(3,5-dichlorophenyl)-5-trifluoromethyl-4,5-dihydroisoxazol-3-yl]benzyl}isobutyramide] | ≥ 60 | ≥ 90 | 
4 | O=C(NCc1cc(C2=NOC(c3cc(Cl)cc(Cl)c3)(C(F)(F)F)C2)ccc1Cl)C1CCC1 (stereo not drawn) [(37), N-{2-chloro-[5-(3,5-dichlorophenyl)-5-trifluoromethyl-4,5-dihydroisoxazol-3-yl]benzyl}cyclobutanecarboxamide] | ≥ 60 | ≥ 90 | 
5 | N#CCC(=O)NCc1cc(C2=NOC(c3cc(Cl)cc(Cl)c3)(C(F)(F)F)C2)ccc1Cl (stereo not drawn) [(34), N-{2-chloro-[5-(3,5-dichlorophenyl)-5-trifluoromethyl-4,5-dihydroisoxazol-3-yl]benzyl}cyanoacetamide] | ≥ 60 | ≥ 90 | 
6 | CC(=O)NCc1cc(C2=NOC(c3cc(Cl)cc(Cl)c3)(C(F)(F)F)C2)ccc1Cl (stereo not drawn) [(28), N-{2-chloro-[5-(3,5-dichlorophenyl)-5-trifluoromethyl-4,5-dihydroisoxazol-3-yl]benzyl}acetamide] | ≥ 60 | ≥ 90 | 
7 | CC(C)CC(=O)NCc1cc(C2=NOC(c3cc(Cl)cc(Cl)c3)(C(F)(F)F)C2)ccc1Cl (stereo not drawn) [(33), N-{2-chloro-[5-(3,5-dichlorophenyl)-5-trifluoromethyl-4,5-dihydroisoxazol-3-yl]benzyl}isovaleramide] | ≥ 60 | ≥ 90 | 
8 | O=C(NCc1cc(C2=NOC(c3cc(Cl)cc(Cl)c3)(C(F)(F)F)C2)ccc1Cl)C(F)(F)F (stereo not drawn) [(36), N-{2-chloro-[5-(3,5-dichlorophenyl)-5-trifluoromethyl-4,5-dihydroisoxazol-3-yl]benzyl}trifluoroacetamide] | ≥ 60 |  | 
9 | O=C(CCC(F)(F)F)NCc1cc(C2=NOC(c3cc(Cl)cc(Cl)c3)(C(F)(F)F)C2)ccc1Cl (stereo not drawn) [(29), N-{2-chloro-[5-(3,5-dichlorophenyl)-5-trifluoromethyl-4,5-dihydroisoxazol-3-yl]benzyl}-4,4,4-trifluorobutanamide] | ≥ 60 | ≥ 90 | 
10 | O=C(NCc1cc(C2=NOC(c3cc(Cl)cc(Cl)c3)(C(F)(F)F)C2)ccc1Cl)C1CC1 (stereo not drawn) [Compound (13)] | ≥ 60 |  | Mortality [3]: ≥ 70%; Mortality [4]: ≥ 70%; Tick control rates (%) at X days after the application, X = 2 (days) ([5]; 2 days): 35%; Tick control rates (%) at X days after the application, X = 16 (days) ([5]; 16 days (re-infested at 14 days)): 100%; Tick control rates (%) at X days after the application, X = 30 (days) ([5]; 30 days (re-infested at 28 days)): 100%; Tick control rates (%) at 2 days after the administration [6]: 91%; Flea control rate (%) at X days after the application ([7]; dropping application 5 mg/kg, 2 days): 92%; Flea control rate (%) at X days after the application ([7]; dropping application 5 mg/kg, 16 days): 97%; Flea control rate (%) at X days after the application ([7]; dropping application 5 mg/kg, 30 days): 97%; Flea control rate (%) at X days after the application ([7]; dropping application 10 mg/kg, 2 days): 100%; Flea control rate (%) at X days after the application ([7]; dropping application 10 mg/kg, 16 days): 100%; Flea control rate (%) at X days after the application ([7]; dropping application 10 mg/kg, 30 days): 100%; Flea control rate (%) at X days after the application ([7]; dropping application 20 mg/kg, 2 days): 100%; Flea control rate (%) at X days after the application ([7]; dropping application 20 mg/kg, 16 days): 100%; Flea control rate (%) at X days after the application ([7]; dropping application 20 mg/kg, 30 days): 100%; mortality at 16 µg/bottle [2]: ≥ 90%
11 | COCC(=O)NCc1cc(C2=NOC(c3cc(Cl)cc(Cl)c3)(C(F)(F)F)C2)ccc1Cl (stereo not drawn) [(30), N-{2-chloro-[5-(3,5-dichlorophenyl)-5-trifluoromethyl-4,5-dihydroisoxazol-3-yl]benzyl}methoxyacetamide] | ≥ 60 | ≥ 90 | 
